Data published in patent publication US20010008947A1, “2-AMINO-4-PHENYL-4-OXO-BUTYRIC ACID DERIVATIVES” (priority 1993, published 2001).
Counter-ions that a name gives are not always drawn.

Legend:
[1] = target: T1, rat brain kynureninase (Rattus norvegicus, UniProt P70712); assay: Kynureninase assay in the rat brain; assay type: biochemical; conditions: rat brain homogenate; for inhibition at 100 µM: read-out: % INHIBITION AT 100 μM Kyn-Ase
T1 construct: Partial purification of rat brain kynureninase was performed according to Lee et al; from tissue; host or cells: rat brain, partially purified enzyme
T1 sequence (P70712 1-464): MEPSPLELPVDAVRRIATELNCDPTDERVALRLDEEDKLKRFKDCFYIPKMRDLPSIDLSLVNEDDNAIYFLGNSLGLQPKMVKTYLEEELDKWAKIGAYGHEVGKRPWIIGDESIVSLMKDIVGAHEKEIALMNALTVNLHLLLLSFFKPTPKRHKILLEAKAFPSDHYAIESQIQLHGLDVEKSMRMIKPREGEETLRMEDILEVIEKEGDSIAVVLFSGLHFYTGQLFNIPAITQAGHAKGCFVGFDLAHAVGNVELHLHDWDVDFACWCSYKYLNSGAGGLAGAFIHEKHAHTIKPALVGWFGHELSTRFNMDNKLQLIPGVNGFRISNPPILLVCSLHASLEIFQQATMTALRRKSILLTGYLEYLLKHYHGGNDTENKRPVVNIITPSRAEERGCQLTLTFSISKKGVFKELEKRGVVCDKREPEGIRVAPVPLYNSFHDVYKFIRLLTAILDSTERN
Experimental: Kynureninase assay in the rat brain
Partial purification of rat brain kynureninase was performed according to Lee et al., “Isolation and characterization of kynureninase from rat liver”, advances in Tryptophan Research, 431-434, 1992.
To perform rat brain kynureninase assay, a reaction mixture (final volume 0.2 ml) containing 100 mM tris-HCl, pH 8.0, […] pyridoxal phosphate, […] kynurenine, 20 μl of partially purified enzyme and 100 μM of inhibitor solution was prepared.
The reaction was carried out at 37° C. for 3 hours and then stopped by adding 50 μl of perchloric acid 2N. After centrifugation at 11000 rpm for 15 min., anthranilic acid in the supernatant was determined fluorimetrically in a HPLC system (as described for the liver method).

[2] = target: T2, kynureninase (Rattus norvegicus, UniProt P70712); assay: Kynureninase inhibition in rat liver homogenates; assay type: biochemical; conditions: rat liver homogenate; for inhibition at 1000 µM: 1 mM
T2 construct: from tissue; host or cells: rat liver homogenate
T2 sequence (P70712 1-464): T1 sequence (P70712 1-464)
Experimental: The efficacy of the compounds of the invention in the inhibition of kynureninase has been evaluated in rat liver homogenates as described by, Takikawa O. et al. in J. Biol. Chem. 261 (8), 3648-3652 - 1986), with slight modifications.
HPLC method was essentially Takikawa's method, using the same Fluorimetric detection (ex. 313 nm, em. 420 nm) but changing the column (Nova-Pak C18 3.9×300 mm) and the mobile phase (phosphate buffer 80 mM, 13% CH.CN pH 2.5).

[3] = target: T3, kynurenine-3-hydroxylase (Rattus norvegicus, UniProt O88867); assay: Kynurenine-3-hydroxylase assay in the rat brain; assay type: biochemical; conditions: rat brain homogenate; for inhibition at 100 µM: read-out: % INHIBITION AT 100 μM Kyn-3-OH-Ase; for IC50: read-out: IC50 Kyn-3-OH-Ase
T3 construct: Brain was homogenized in ice-cold 0.32 M sucrose and centrifugated at 12000×g; from tissue; host or cells: rat brain homogenate, washed pellet suspended
T3 sequence (O88867 whole entry): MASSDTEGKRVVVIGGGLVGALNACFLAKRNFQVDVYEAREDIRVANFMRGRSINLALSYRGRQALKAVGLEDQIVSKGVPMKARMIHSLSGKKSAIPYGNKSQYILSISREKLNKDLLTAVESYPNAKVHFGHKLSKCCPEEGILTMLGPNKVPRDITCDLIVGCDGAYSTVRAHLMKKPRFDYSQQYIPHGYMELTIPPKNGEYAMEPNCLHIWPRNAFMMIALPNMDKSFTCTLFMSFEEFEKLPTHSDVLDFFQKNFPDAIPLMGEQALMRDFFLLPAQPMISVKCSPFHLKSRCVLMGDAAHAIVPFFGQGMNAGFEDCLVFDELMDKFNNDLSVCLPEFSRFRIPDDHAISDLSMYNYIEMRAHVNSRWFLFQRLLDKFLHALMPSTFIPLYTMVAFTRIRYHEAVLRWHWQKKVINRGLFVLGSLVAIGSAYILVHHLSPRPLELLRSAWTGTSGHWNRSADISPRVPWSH
Experimental: Kynurenine-3-hydroxylase assay in the rat brain
Kynurenine-3-hydroxylase activity was quantified by the conversion of L-kynurenine to 3-hydroxykynurenine. Brain was homogenized in ice-cold 0.32 M sucrose and centrifugated at 12000×g, for 30 min at 4 C. The pellet was washed three times with 0.32 M sucrose by centrifugation and suspended in 0.14 M KCl in 20 mM K-phosphate buffer pH 7 (1 g tissue in 2 ml buffer).
The reaction mixture contained: 75 μl of suspended homogenate; 100 μl of substrate solution containing 50 mM K-phosphate buffer pH 7.5, 2 mM MgCl2, 0.4 mM NADPH and 50 μM L-kynurenine (final concentration); 25 μl of different concentrations of inhibitor solutions.
The reaction was stopped by addition of 200 μl of 1 M HClO4 after 60 min. incubation.
3-hydroxykynurenine formed was quantified by HPLC with coulometric detection (working voltage was +0.2 V). The column was a 10 cm C18 reversed phase (3 μm). The mobile phase consisted of 950 ml distilled water. 20 ml acetonitrile, 9 ml triethylamine, 5.9 ml phosphoric acid, 100 mg sodium EDTA and 1.5 g heptanesulfonic acid. The flow-rate was 1 ml/min.

[4] = target: T1, rat brain kynureninase; assay: Kynureninase assay in the rat brain; assay type: biochemical; conditions: rat brain homogenate; read-out: IC50 Kyn-Ase
[5] = target: T3, kynurenine-3-hydroxylase; assay: Kynurenine-3-hydroxylase assay in the rat liver; assay type: biochemical; conditions: rat liver homogenate
Experimental: Kynurenine-3-hydroxylase assay in the rat liver
Rat liver is homogenized in cold 0.32 M sucrose.
The homogenates are centrifuged at 12000×rpm for 30 minutes at 4° C. The precipitate, after having been washed three times with 0.32 M sucrose by means of centrifugation (12000×rpm for 30 min), is resuspended in 20 mM K-buffer+0.14 M KCl at pH 7 (1 g of liver in 6.5 ml ).
The reaction at 37° C. is terminated by the addition of 200 μl of […] after 10 minutes of incubation.
The concentrations of 3-hydroxy-kynurenine, produced in the absence or presence of the tested molecules are determined by HPLC with coulometric detection (pot. +0.20 V), using for the separation a reversed phase column C18, 10 cm long and a 3 μm particulate. The composition of the mobile phase was: 950 ml of water for HPLC, 20 ml of acetonitrile, 9 ml of triethylamine, 5.9 ml of phosphoric acid, 100 mg of Na EDTA and 1.5 g of heptanesulfonic acid.

Row | Structure (SMILES) | melting point | inhibition at 100 µM [1] | inhibition at 100 µM [3] | IC50 [3] | also measured
1 | NC(CC(=O)c1ccccc1)C(=O)O (racemic) [FCE 27377, (R,S)-2-amino-4-phenyl-4-oxo-butyric acid] | – | 35.6% | – | – | inhibition at 100 µM [2]: 46%; inhibition at 1000 µM [2]: 86%
2 | COc1ccc(C(=O)CC(N)C(=O)O)cc1 (racemic) [FCE 28628, (R,S)-2-amino-4-(4′-methoxyphenyl)-4-oxo-butyric acid] | 160 °C (dec.) | 17% | 79% | 30 µM | –
3 | COc1cccc(C(=O)C[C@@H](N)C(=O)O)c1 (racemic) [FCE 28629, (R,S)-2-amino-4-(3′-methoxyphenyl)-4-oxo-butyric acid] | – | – | – | – | % INHIBITION AT 100 μM Kyn-3-OH-Ase [3]: 29%; % INHIBITION AT 100 μM Kyn-Ase [1]: 54%
4 | N[C@H](CC(=O)c1ccccc1F)C(=O)O (racemic) [FCE 28631, (R,S)-2-amino-4-(2′-fluorophenyl)-4-oxo-butyric acid] | – | – | – | – | % INHIBITION AT 100 μM Kyn-3-OH-Ase [3]: 47%; % INHIBITION AT 100 μM Kyn-Ase [1]: 52%
5 | N[C@H](CC(=O)c1cccc(C(F)(F)F)c1)C(=O)O (racemic) [FCE 28680, (R,S)-2-amino-4-(3′-trifluoromethylphenyl)-4-oxo-butyric acid] | – | – | – | – | % INHIBITION AT 100 μM Kyn-3-OH-Ase [3]: 17%; % INHIBITION AT 100 μM Kyn-Ase [1]: 67%
6 | NC(CC(=O)c1ccc(Cl)cc1)C(=O)O (racemic) [FCE 28751, (R,S)-2-amino-4-(4′-chlorophenyl)-4-oxo-butyric acid] | 204 to 206 °C | 0% | 85% | 7 µM | –
7 | NC(CC(=O)c1cccc(Cl)c1)C(=O)O (racemic) [FCE 28752, (R,S)-2-amino-4-(3′-chlorophenyl)-4-oxo-butyric acid] | 198 to 200 °C (dec.) | 60% | 93% | 0.4 µM | –
8 | N[C@H](CC(=O)c1ccccc1Cl)C(=O)O (racemic) [FCE 28753, (R,S)-2-amino-4-(2′-chloroohenyl)-4-oxo-butyric acid] | – | – | – | – | % INHIBITION AT 100 μM Kyn-3-OH-Ase [3]: 22%; % INHIBITION AT 100 μM Kyn-Ase [1]: 71%
9 | NC(CC(=O)c1cccc(F)c1)C(=O)O (racemic) [FCE 28764, (R,S)-2-amino-4-(3′-fluorophenyl)-4-oxo-butyric acid] | 194 to 195 °C (dec.) | 0% | 93% | 0.9 µM | –
10 | COc1ccc(F)cc1C(=O)C[C@@H](N)C(=O)O (racemic) [FCE 28766, (R,S)-2-amino-4-(2′-methoxy-5′-fluoropheryl)-4-oxo-butyric acid] | – | – | – | – | % INHIBITION AT 100 μM Kyn-3-OH-Ase [3]: 2%; % INHIBITION AT 100 μM Kyn-Ase [1]: 81%
11 | NC(CC(=O)c1ccc(Cl)c(Cl)c1)C(=O)O (racemic) [FCE 28833, (R,S)-2-amino-4-(3′,4′-dichlorophenyl)-4-oxo-butyric acid] | – | – | 99% | 0.2 µM | –

Continued, in another order:

Row | melting point | inhibition at 100 µM [1] | inhibition at 100 µM [3] | IC50 [3] | Structure (SMILES) | also measured
12 | 212 to 213 °C | – | – | – | COc1ccc(Cl)cc1C(=O)CC(N)C(=O)O (racemic) (as salt: hydrochloride) [FCE 28836, (R,S)-2-amino-4-(2′-methoxy-5′-chlorophenyl-4-oxo-butyric acid] | –
13 | 115 °C (dec.) | 86% | 4% | – | COc1ccccc1C(=O)CC(N)C(=O)O (racemic) [FCE 27384, (R,S)-2-amino-4-(2′-methoxyphenyl)-4-oxo-butyric acid] | IC50 [4]: 6 µM; inhibition at 100 µM ([5]; 100 μM): 3%; inhibition at 1000 µM ([5]; 1 mM): 30%; inhibition at 100 µM [2]: 96%; inhibition at 1000 µM [2]: 97%
14 | 192 to 193 °C (dec.) | 40% | 81% | 23 µM | Cc1ccccc1C(=O)CC(N)C(=O)O (racemic) [FCE 28630, (R,S)-2-amino-4-(2′-methylphenyl)-4-oxo-butyric acid] | –
15 | – | – | 73% | 33 µM | COc1ccc(Cl)cc1C(=O)CC(N)C(=O)O (racemic) [FCE 28836, (R,S)-2-amino-4-(2′-methoxy-5′-chlorophenyl-4-oxo-butyric acid] | –
16 | – | 61% | – | – | N[C@@H](CC(=O)c1ccccc1)C(=O)O [FCE 28468, (S)-2-amino-4-phenyl-4-oxo-butyric acid] | –
17 | – | 19% | – | – | N[C@H](CC(=O)c1ccccc1)C(=O)O [FCE 28469, (R)-2-amino-4-phenyl-4-oxo-butyric acid] | –
18 | 130 °C (dec.) | – | – | – | COc1ccccc1C(=O)C[C@H](N)C(=O)O [FCE 28626, (S)-2-amino-4-(2′-methoxyphenyl)-4-oxo-butyric acid] | –
